Laboratory results: ChEMBL document CHEMBL3885881, “DrugMatrix”

Species on record: Rattus norvegicus
Test: DrugMatrix - Regimen: Daily Repeat
Assay type: toxicity, organism-based, Sprague-Dawley
Parameters: regimen Daily Repeat, gender Male, age 6-8 weeks
Settings: in vivo, po, route oral GAVAGE, vehicle .5 % CMC; for ABSOLUTE BASOPHIL / ABSOLUTE EOSINOPHIL / ABSOLUTE LYMPHOCYTE / ABSOLUTE MONOCYTE / ABSOLUTE SEGMENTED NEUTROPHIL / BASOPHIL / EOSINOPHIL / ERYTHROCYTE COUNT / HEMATOCRIT / HEMOGLOBIN / LEUKOCYTE COUNT / LYMPHOCYTE / MEAN CORPUSCULAR HEMOGLOBIN / MEAN CORPUSCULAR HEMOGLOBIN CONCENTRATION / MEAN CORPUSCULAR VOLUME / MONOCYTE / NEUTROPHIL / NUCLEATED RED BLOOD CELLS / PLATELET COUNT: tissue Blood; for ALANINE AMINOTRANSFERASE / ALBUMIN / ALKALINE PHOSPHATASE / ASPARTATE AMINOTRANSFERASE / BLOOD UREA NITROGEN / CARBON DIOXIDE / CHLORIDE / CHOLESTEROL / CREATINE PHOSPHOKINASE / CREATININE / GLUCOSE / LACTATE DEHYDROGENASE / LIPASE / PHOSPHORUS / POTASSIUM / SODIUM / TOTAL BILIRUBIN / TOTAL PROTEIN / URIC ACID: tissue Plasma
[1] = 0 mg/kg, 72 h, dose level Control, time 3 day
[2] = 0 mg/kg, 120 h, dose level Control, time 5 day
[3] = 29 mg/kg, 72 h, dose level Low, time 3 day

NC(=O)NC(=O)Cc1ccccc1 [PHENACEMIDE]
ABSOLUTE BASOPHIL [1]: 0 CELLS/uL | ABSOLUTE EOSINOPHIL [1]: 15.17 CELLS/uL | ABSOLUTE LYMPHOCYTE [1]: 10149.83 CELLS/uL | ABSOLUTE MONOCYTE [1]: 193.33 CELLS/uL | ABSOLUTE SEGMENTED NEUTROPHIL [1]: 1575 CELLS/uL | BASOPHIL [1]: 0% | EOSINOPHIL [1]: 0.17% | ERYTHROCYTE COUNT [1]: 5.53 x10E6/uL | HEMATOCRIT [1]: 34.7% | HEMOGLOBIN [1]: 12.78 G/DL | LEUKOCYTE COUNT [1]: 11.93 x10E3/uL | LYMPHOCYTE [1]: 85.5% | MEAN CORPUSCULAR HEMOGLOBIN [1]: 23.15 pg | MEAN CORPUSCULAR HEMOGLOBIN CONCENTRATION [1]: 36.9 G/DL | MEAN CORPUSCULAR VOLUME [1]: 62.82 fL | MONOCYTE [1]: 1.5% | NEUTROPHIL [1]: 12.83% | NUCLEATED RED BLOOD CELLS [1]: 0.5 /100WBC | PLATELET COUNT [1]: 994.17 x10E3/uL | ALANINE AMINOTRANSFERASE [1]: 48.17 u/L | ALBUMIN [1]: 4.37 G/DL | ALKALINE PHOSPHATASE [1]: 436.5 u/L | ASPARTATE AMINOTRANSFERASE [1]: 83.17 u/L | BLOOD UREA NITROGEN [1]: 14.67 mg/dL | CARBON DIOXIDE [1]: 30.83 mmol/L | CHLORIDE [1]: 99.17 MEQ/L | CHOLESTEROL [1]: 86.33 mg/dL | CREATINE PHOSPHOKINASE [1]: 243.33 u/L | CREATININE [1]: 0.25 mg/dL | GLUCOSE [1]: 158 mg/dL | LACTATE DEHYDROGENASE [1]: 262.33 u/L | LIPASE [1]: 11 u/L | PHOSPHORUS [1]: 12.07 mg/dL | POTASSIUM [1]: 6.52 MEQ/L | SODIUM [1]: 142.45 MEQ/L | TOTAL BILIRUBIN [1]: 0.17 mg/dL | TOTAL PROTEIN [1]: 6.25 G/DL | URIC ACID [1]: 1.42 mg/dL | ABSOLUTE BASOPHIL [2]: 0 CELLS/uL | ABSOLUTE EOSINOPHIL [2]: 0 CELLS/uL | ABSOLUTE LYMPHOCYTE [2]: 10076.67 CELLS/uL | ABSOLUTE MONOCYTE [2]: 124 CELLS/uL | ABSOLUTE SEGMENTED NEUTROPHIL [2]: 966 CELLS/uL | BASOPHIL [2]: 0% | EOSINOPHIL [2]: 0% | ERYTHROCYTE COUNT [2]: 5.57 x10E6/uL | HEMATOCRIT [2]: 33.37% | HEMOGLOBIN [2]: 12.73 G/DL | LEUKOCYTE COUNT [2]: 11.17 x10E3/uL | LYMPHOCYTE [2]: 90.33% | MEAN CORPUSCULAR HEMOGLOBIN [2]: 22.9 pg | MEAN CORPUSCULAR HEMOGLOBIN CONCENTRATION [2]: 38.18 G/DL | MEAN CORPUSCULAR VOLUME [2]: 59.97 fL | MONOCYTE [2]: 1% | NEUTROPHIL [2]: 8.67% | NUCLEATED RED BLOOD CELLS [2]: 0 /100WBC | PLATELET COUNT [2]: 1078 x10E3/uL | ALANINE AMINOTRANSFERASE [2]: 37.17 u/L | ALBUMIN [2]: 4.2 G/DL | ALKALINE PHOSPHATASE [2]: 322.17 u/L | ASPARTATE AMINOTRANSFERASE [2]: 67.67 u/L | BLOOD UREA NITROGEN [2]: 14 mg/dL | CARBON DIOXIDE [2]: 27.67 mmol/L | CHLORIDE [2]: 102.17 MEQ/L | CHOLESTEROL [2]: 67.67 mg/dL | CREATINE PHOSPHOKINASE [2]: 171.83 u/L | CREATININE [2]: 0.27 mg/dL | GLUCOSE [2]: 172 mg/dL | LACTATE DEHYDROGENASE [2]: 85.33 u/L | LIPASE [2]: 8.67 u/L | PHOSPHORUS [2]: 12 mg/dL | POTASSIUM [2]: 6.09 MEQ/L | SODIUM [2]: 144.82 MEQ/L | TOTAL BILIRUBIN [2]: 0.13 mg/dL | TOTAL PROTEIN [2]: 6.07 G/DL | URIC ACID [2]: 2.13 mg/dL | ABSOLUTE BASOPHIL [3]: 0 CELLS/uL | ABSOLUTE EOSINOPHIL [3]: 0 CELLS/uL | ABSOLUTE LYMPHOCYTE [3]: 6638.67 CELLS/uL | ABSOLUTE MONOCYTE [3]: 81.67 CELLS/uL | ABSOLUTE SEGMENTED NEUTROPHIL [3]: 1179.67 CELLS/uL | BASOPHIL [3]: 0% | EOSINOPHIL [3]: 0% | ERYTHROCYTE COUNT [3]: 4.84 x10E6/uL | HEMATOCRIT [3]: 29.67% | HEMOGLOBIN [3]: 11.57 G/DL | LEUKOCYTE COUNT [3]: 7.9 x10E3/uL | LYMPHOCYTE [3]: 84% | MEAN CORPUSCULAR HEMOGLOBIN [3]: 23.9 pg | MEAN CORPUSCULAR HEMOGLOBIN CONCENTRATION [3]: 39 G/DL | MEAN CORPUSCULAR VOLUME [3]: 61.37 fL | MONOCYTE [3]: 1% | NEUTROPHIL [3]: 15% | NUCLEATED RED BLOOD CELLS [3]: 0.67 /100WBC | PLATELET COUNT [3]: 982 x10E3/uL | ALANINE AMINOTRANSFERASE [3]: 51 u/L | ALBUMIN [3]: 4.1 G/DL | ALKALINE PHOSPHATASE [3]: 430.67 u/L | ASPARTATE AMINOTRANSFERASE [3]: 87.33 u/L | BLOOD UREA NITROGEN [3]: 15.67 mg/dL | CARBON DIOXIDE [3]: 30 mmol/L | CHLORIDE [3]: 101 MEQ/L | CHOLESTEROL [3]: 78.67 mg/dL | CREATINE PHOSPHOKINASE [3]: 358 u/L | CREATININE [3]: 0.27 mg/dL | GLUCOSE [3]: 152.67 mg/dL | LACTATE DEHYDROGENASE [3]: 97 u/L | LIPASE [3]: 9.67 u/L | PHOSPHORUS [3]: 12.5 mg/dL | POTASSIUM [3]: 6.3 MEQ/L | SODIUM [3]: 145.1 MEQ/L | TOTAL BILIRUBIN [3]: 0.13 mg/dL | TOTAL PROTEIN [3]: 5.83 G/DL | URIC ACID [3]: 0.97 mg/dL
